Where “and” joins values, the source holds several entries; their conditions need not be identical. Equal entries are not always repeated.
Test system: penicillin hypersensitivity (patients)
Assay: Clinical evaluation by 26 investigators: scratch/intradermal skin tests with PPL and Penicillin G (Tables IV-VII, IX-XI)
Type: in vivo, human
Conditions: for TOTAL (+) No. / TOTAL (+) Percent of total positive: skin reactive penicillin allergy patients
Description: Twenty-six clinical investigators contributed a total of 1160 cases to the evaluation. Patients were tested according to a protocol as follows:
1. All patients being subjected to allergy investigation were to be tested for penicillin hypersensitivity. Two preparations were to be used. These are:
2. Penicillin G (Benzyl Penicillin) in a concentration of 10,000 units per cc.
For maximum safety, it was recommended that the tests first be done by the scratch technique. Intradermal tests were then to be done on those showing negative scratch tests. In cases where the penicillin sensitivity was suspected to be of a violent character, more dilute reagents were recommended at the discretion of the individual investigator.
A uniform technique was recommended for the performance of the intradermal tests. Only a minimal amount of testing reagent was to be injected so as to make a barely discernible intradermal bleb. The amount necessary for this injection is about 0.01 to 0.03 cc. It was recognized that the intrepretation of the test results is an important matter. The reactions were to be recorded in terms of (1) the time required for the appearance of a reaction, (2) the size of erythema and (3) the size of whealing. These were to be recorded as actual measurements. Some objective measurement of dermographism was also to be recorded.
It was also contemplated that all patients who were to be treated with penicillin be tested as recommended above, even though they had previously received penicillin with impunity.
A comprehensive clinical history was takan on each patient with particular regard to previous penicillin therapy, and reaction.
In order to properly analyze the data on such a large number of patients, a data processing system was utilized.
Table IV summarizes the skin test results on all patients, without regard to other specific factors. […] It will also be noted that a significant number of patients reacted only to PPL, and another group only to Pen G. Therefore, to detect the maximum number of reactors, both test reagents would be required. A technical problem was classification of the ambiguous or borderline reactors, particularly those showing only erythema. Attempts to correlate the appearance of the erythematous flare without wheal formation with a history of penicillin hypersensitivity were unsuccessful. In some instances, however, erythema without wheal did appear to be associated with hypersensitivity to the antibiotic. The time of development of erythema without wheal varied widely from a few minutes to more than 7 days which also made its importance questionable. as a diagnostic sign. For these reasons erythema alone responses were counted with the negatives. In some instances, however, data will be presented in which erythema without wheal are counted as positive responses (figures appearing in parentheses).

[1] = Group I (675 patients): penicillin Rx, no hypersensitivity, erythema only counted as negative
[2] = Group I (675 patients): penicillin Rx, no hypersensitivity, parentheses: erythema only (ambiguous) counted as positive
[3] = Group II (352 patients): penicillin Rx & hypersensitive, erythema only counted as negative
[4] = Group II (352 patients): penicillin Rx & hypersensitive, parentheses: erythema only (ambiguous) counted as positive
[5] = Group III (70 patients): no penicillin Rx in past, erythema only counted as negative
[6] = Group III (70 patients): no penicillin Rx in past, parentheses: erythema only (ambiguous) counted as positive
[7] = Group IV (56 patients): no data, erythema only counted as negative
[8] = Group IV (56 patients): no data, parentheses: erythema only (ambiguous) counted as positive
[9] = TOTALS (1153 patients), erythema only counted as negative
[10] = TOTALS (1153 patients), parentheses: erythema only (ambiguous) counted as positive
[11] = TOTALS, all patients (1153 tested), erythema only counted as negative
[12] = TOTALS, all patients (1153 tested), parentheses: erythema only (ambiguous) counted as positive
[13] = all patients (1153 tested), erythema only counted as negative
[14] = all patients (1153 tested), parentheses: erythema only (ambiguous) counted as positive
[15] = history of therapy: Multi Courses (177 tested)
[16] = history of therapy: One Course (249 tested)
[17] = history of therapy: One Dose (152 tested)
[18] = history of therapy: TOTALS (578 tested)
[19] = penicillin reaction between 30 minutes and 24 hours post therapy (87 patients), erythema only counted as negative
[20] = penicillin reaction between 30 minutes and 24 hours post therapy (87 patients), parentheses: erythema only (ambiguous) counted as positive
[21] = penicillin reaction more than 24 hours post therapy (144 patients), erythema only counted as negative
[22] = penicillin reaction more than 24 hours post therapy (144 patients), parentheses: erythema only (ambiguous) counted as positive
[23] = penicillin reaction within 30 minutes post therapy (56 patients), erythema only counted as negative
[24] = penicillin reaction within 30 minutes post therapy (56 patients), parentheses: erythema only (ambiguous) counted as positive
[25] = reason for testing: "Penicillin" (240 tested)
[26] = reason for testing: Other Substances (463 tested)
[27] = reaction between 30 minutes and 24 hours post therapy, erythema only counted as negative
[28] = reaction between 30 minutes and 24 hours post therapy, parentheses: erythema only (ambiguous) counted as positive
[29] = reaction more than 24 hours post therapy, parentheses: erythema only (ambiguous) counted as positive
[30] = reaction within 30 minutes post therapy, parentheses: erythema only (ambiguous) counted as positive
[31] = type of hypersensitivity reaction: Skin (309 tested)
[32] = type of hypersensitivity reaction: Visceral (43 tested)

Substance: penicilloyl-poly-L-lysine [PPL]
- Skin Test (+) No. [1]: 36
- Skin Test (+) Percent [1]: 5.3%
- Skin Test (-) No. [1]: 639
- Skin Test (-) Percent [1]: 94.7%
- Skin Test (+) No. [2]: 78
- Skin Test (+) Percent [2]: 11.6%
- Skin Test (-) No. [2]: 597
- Skin Test (-) Percent [2]: 88.4%
- Skin Test (+) No. [3]: 73
- Skin Test (+) Percent [3]: 20.7%
- Skin Test (-) No. [3]: 279
- Skin Test (-) Percent [3]: 79.3%
- Skin Test (+) No. [4]: 97
- Skin Test (+) Percent [4]: 27.6%
- Skin Test (-) No. [4]: 255
- Skin Test (-) Percent [4]: 72.4%
- Skin Test (+) No. [5]: 1
- Skin Test (+) Percent [5]: 1.4%
- Skin Test (-) No. [5]: 69
- Skin Test (-) Percent [5]: 98.6%
- Skin Test (+) No. [6]: 6
- Skin Test (+) Percent [6]: 8.6%
- Skin Test (-) No. [6]: 64
- Skin Test (-) Percent [6]: 91.4%
- Skin Test (+) No. [7]: 3
- Skin Test (+) Percent [7]: 5.4%
- Skin Test (-) No. [7]: 53
- Skin Test (-) Percent [7]: 94.6%
- Skin Test (+) No. [8]: 4
- Skin Test (+) Percent [8]: 7.1%
- Skin Test (-) No. [8]: 52
- Skin Test (-) Percent [8]: 92.9%
- SKIN TEST RESPONSE No. (No reactions (675 tested)): 36
- SKIN TEST RESPONSE Percent (No reactions (675 tested)): 5.3%
- Skin Test (-) No. [9]: 1040
- Skin Test (-) Percent [9]: 90.2%
- Skin Test (-) No. [10]: 968
- Skin Test (-) Percent [10]: 84.0%
- Skin Test (+) No. [11]: 113
- Skin Test (+) Percent [11]: 9.8%
- Skin Test (+) No. [12]: 185
- Skin Test (+) Percent [12]: 16.1% and 16.0%
- PPL (+) PG (+) No. [13]: 34
- PPL (+) PG (+) Percent [13]: 3.0%
- PPL (+) PG (-) No. [13]: 79
- PPL (+) PG (-) Percent [13]: 6.9%
- PPL (-) PG (+) No. [13]: 38
- PPL (-) PG (+) Percent [13]: 3.3%
- PPL (-) PG (-) No. [13]: 1002
- PPL (-) PG (-) Percent [13]: 86.9%
- PPL (+) PG (+) No. [14]: 80
- PPL (+) PG (+) Percent [14]: 6.9%
- PPL (+) PG (-) No. [14]: 105
- PPL (+) PG (-) Percent [14]: 9.1%
- PPL (-) PG (+) No. [14]: 49
- PPL (-) PG (+) Percent [14]: 4.3%
- PPL (-) PG (-) No. [14]: 919
- PPL (-) PG (-) Percent [14]: 79.7%
- positive skin tests, patients positive/patients in group (delayed (after 24 hours) group): 24/144
- positive skin tests, percent of group (delayed (after 24 hours) group, 144 patients): 16.7%
- Skin Reactions PPL- / PEN G- No. [15]: 14
- Skin Reactions PPL- / PEN G- Percent [15]: 7.9%
- Skin Reactions PPL- / PEN G- No. [16]: 14
- Skin Reactions PPL- / PEN G- Percent [16]: 5.6%
- Skin Reactions PPL- / PEN G- No. [17]: 24
- Skin Reactions PPL- / PEN G- Percent [17]: 15.8%
- Skin Reactions PPL- / PEN G- No. [18]: 52
- Skin Reactions PPL- / PEN G- Percent [18]: 9.0%
- positive skin tests, patients positive/patients in group (immediate reacting group (within 30 minutes)): 26/56
- positive skin tests, percent of group (immediate reacting group (within 30 minutes), 56 patients): 46% and 46.5%
- percent of skin-test positive patients that would be missed if only this reagent were used as skin test antigen (immediate reactor group): 16%
- PL (+) PG (+) No. [19]: 12
- PL (+) PG (+) Percent [19]: 13.8%
- PPL (+) PG (-) No. [19]: 9
- PPL (+) PG (-) Percent [19]: 10.4%
- PPL (-) PG (+) No. [19]: 5
- PPL (-) PG (+) Percent [19]: 5.7%
- PPL (-) PG (-) No. [19]: 61
- PPL (-) PG (-) Percent [19]: 70.0%
- PL (+) PG (+) No. [20]: 14
- PL (+) PG (+) Percent [20]: 16.1%
- PPL (+) PG (-) No. [20]: 10
- PPL (+) PG (-) Percent [20]: 11.5%
- PPL (-) PG (+) No. [20]: 7
- PPL (-) PG (+) Percent [20]: 8.0%
- PPL (-) PG (-) No. [20]: 56
- PPL (-) PG (-) Percent [20]: 64.4%
- PL (+) PG (+) No. [21]: 8
- PL (+) PG (+) Percent [21]: 5.6%
- PPL (+) PG (-) No. [21]: 16
- PPL (+) PG (-) Percent [21]: 11.1%
- PPL (-) PG (+) No. [21]: 9
- PPL (-) PG (+) Percent [21]: 6.2%
- PPL (-) PG (-) No. [21]: 111
- PPL (-) PG (-) Percent [21]: 77.1%
- PL (+) PG (+) No. [22]: 11
- PL (+) PG (+) Percent [22]: 7.6%
- PPL (+) PG (-) No. [22]: 22
- PPL (+) PG (-) Percent [22]: 15.3%
- PPL (-) PG (+) No. [22]: 11
- PPL (-) PG (+) Percent [22]: 7.6%
- PPL (-) PG (-) No. [22]: 100
- PPL (-) PG (-) Percent [22]: 69.4%
- PL (+) PG (+) No. [23]: 12
- PL (+) PG (+) Percent [23]: 21.4%
- PPL (+) PG (-) No. [23]: 14
- PPL (+) PG (-) Percent [23]: 25.0%
- PPL (-) PG (+) No. [23]: 5
- PPL (-) PG (+) Percent [23]: 8.9%
- PPL (-) PG (-) No. [23]: 25
- PPL (-) PG (-) Percent [23]: 44.6%
- PL (+) PG (+) No. [24]: 15
- PL (+) PG (+) Percent [24]: 26.8%
- PPL (+) PG (-) No. [24]: 16
- PPL (+) PG (-) Percent [24]: 28.6%
- PPL (-) PG (+) No. [24]: 5
- PPL (-) PG (+) Percent [24]: 8.9%
- PPL (-) PG (-) No. [24]: 20
- PPL (-) PG (-) Percent [24]: 35.7%
- Skin Test (+) No. [25]: 31
- Skin Test (+) Percent [25]: 12.9%
- Skin Test (+) No. [26]: 21
- Skin Test (+) Percent [26]: 4.5%
- TOTAL (+) No. [27]: 21
- TOTAL (+) Percent of total positive [27]: 80.8%
- TOTAL (+) No. [28]: 24
- TOTAL (+) Percent of total positive [28]: 77.4%
- TOTAL (+) No. (reaction more than 24 hours post therapy, erythema only counted as negative): 24
- TOTAL (+) No. [29]: 33
- TOTAL (+) Percent of total positive [29]: 75.0%
- TOTAL (+) No. (reaction within 30 minutes post therapy, erythema only counted as negative): 26
- TOTAL (+) No. [30]: 31
- TOTAL (+) Percent of total positive [30]: 86.1%
- SKIN TEST RESPONSE No. [31]: 66
- SKIN TEST RESPONSE Percent [31]: 21.4%
- SKIN TEST RESPONSE No. [32]: 10
- SKIN TEST RESPONSE Percent [32]: 23.3%

Source: patent US3979508A, “Compositions and methods therewith for penicillin hypersensitivity detection” (Kremers-Urban Company, priority 1975, dated 1976)
